# Results taken from US4530907A, “Perfusion-cultivation of animal cells and equipment therefor” (priority 1981, dated 1985).
# Like-named read-outs stand apart in the source and are kept apart here.
# Test system: neuroblastoma cells
# Excerpt: The test system in question is based on cultivation of neuroblastoma cells C1300, 41A3 and the effect on these cells measured as general biological cell changes or biochemical changes, as a function of the content of toxic substances in the substrate. The cell line used is suitable for such measurements since its biology and biochemistry is well documented.
# Examples of other parameters which can be used are ATP (adenosine triphosphate) content and LDH (lactate dehydrogenase) activity in the perfusion liquid. These function as indicators of membrane leakage and their concentration can be expected to increase after exposure. Another way of measuring membrane leakage is to study the outflow of an isotope-marked marker (see Example 5). It is also possible to measure the absorption of trypan blue in dead cells with the help of light absorption (see Example 4 and FIG. 4).
# Determining LD50 values by means of cell death, measured as absorption of trypan blue
# The accumulation of trypan blue (a stain which is taken up in dead cells) can be calculated with the help of light-absorption measurements.
# [1] = trypan blue absorption by light absorption, statement for all listed substances together
SMILES,"cell death in neuroblastoma cells, correlation with the LD50 values obtained from animal experiments [1]","cell death in neuroblastoma cells, correlation with the LD50 values obtained from animal experiments"
[K+].[K+].[O]=[Cr](=[O])([O-])[O][Cr](=[O])(=[O])[O-] [K2 Cr2 O7],correlates well,
CCCO [n-propanol],correlates well,
[CH3][Hg][Cl] [CH3 HgCl],correlates well,
c1ccccc1 [benzene],,correlates well
C1COCCO1 [dioxane],correlates well,
Clc1ccc(C(c2ccc(Cl)cc2)C(Cl)(Cl)Cl)cc1 [pp-DDT],correlates well,
CC(C)=O [acetone],correlates well,
[Cl][Cd][Cl] [CdCl2],correlates well,
CCCCO [n-butanol],correlates well,
[Cl][Hg][Cl] [HgCl2],correlates well,
